Values after ≈ are worked out from the molar mass of the structure shown.
Columns and labels:
[1] = In vivo pharmacokinetics in rats; settings: rat
[2] = tested on: human colorectal cells (HRT-18); test: In vitro cytotoxicity; type: cell-based; settings: for safety margin: human, 2 h; for concentration not toxic to HRT-18 cells: MTS assay, two hours incubation
[3] = PBS solubility screen; type: physicochemical
[4] = phosphate-buffered saline; cited from earlier work
[5] = tested on: BHK-21; test: In vitro cytotoxicity; type: cell-based, hamster; settings: MTT assay
[6] = tested on: MRSA USA300; type: cell-based, Staphylococcus aureus; settings: MRSA USA300, fourteen passages over two weeks
[7] = tested on: S. aureus NRS107; test: MIC by broth microdilution against mupirocin-resistant S. aureus NRS107; type: cell-based, Staphylococcus aureus; settings: S. aureus NRS107, high-level resistance to mupirocin
[8] = tested on: MRSA (2658 RCMB); test: MIC by broth microdilution against MRSA clinical isolate 2658 RCMB; type: cell-based; settings: Staphylococcus aureus
[9] = tested on: MRSA USA300; test: Time-kill assay against MRSA; type: cell-based, Staphylococcus aureus
[10] = tested on: S. aureus NRS119; test: MIC by broth microdilution against linezolid-resistant S. aureus NRS119; type: cell-based, Staphylococcus aureus; settings: S. aureus NRS119, resistance to linezolid
[11] = tested on: S. aureus NRS384; type: cell-based, Staphylococcus aureus; settings: S. aureus NRS384, resistance to macrolides and tetracyclines
[12] = tested on: S. aureus NRS119; settings: cited from earlier work
[13] = in vivo; cited from earlier work

CCCCc1ccc(-c2nc(C)c(/C(C)=N/NC(=N)N)s2)cc1 [Compound 1a, reference compound]
%F (oral bioavailability) ([1]; 25 mg/kg oral dose): not bioavailable orally
safety margin [2]: 32 ×MIC

C/C(=N\NC(=N)N)c1sc(-c2ccc(-c3ccccc3)cc2)nc1C [Compound 1b, reference compound]
solubility at 2 h ([3]; Solubility limit): 2.2 µM (≈ 0.769 µg/mL)
times less soluble than lead compound 1a [4]: 24 times

Cc1nc(-c2ccc(-c3ccccc3)cc2)sc1-c1nnc(NC(=N)N)o1 [Compound 22, 1-{5-(2-([1,1′-Biphenyl]-4-yl)-4-methylthiazol-5-yl)-1,3,4-oxadiazol-2-yl}guanidine]
improvement in aqueous solubility relative to pyrimidine analogue 1c [3]: 43 times

Cc1nc(-c2ccc(-c3ccccc3)cc2)sc1-c1nnc(NC(=N)N2CCOCC2)o1 [Compound 26, N-{5-(2-([1,1′-Biphenyl]-4-yl)-4-methylthiazol-5-yl)-1,3,4-oxadiazol-2-yl}morpholine-4-carboximidamide]
tolerability against non-cancerous cell line BHK-21 [5]: highly tolerable
shift in MIC over fourteen passages [6]: No increase in MIC
concentration not toxic to HRT-18 cells [2]: 256 µg/mL

Cc1nc(-c2ccc(-c3ccccc3)cc2)sc1-c1nnc(NC(=N)N2CCN(C)CC2)o1 [Compound 27, N-{5-(2-([1,1′-Biphenyl]-4-yl)-4-methylthiazol-5-yl)-1,3,4-oxadiazol-2-yl}-4-methylpiperazine-1-carboximid-amide]
growth inhibition [7]: inhibited growth
tolerability against non-cancerous cell line BHK-21 [5]: highly tolerable
shift in MIC over fourteen passages [6]: No increase in MIC
MIC [8]: 1.1 µg/mL (≈ 2.39 µM)
Cmax relative to MIC against MRSA (2658 RCMB) ([1]; in vivo, po, 25 mg/kg): nearly six-fold
MRSA CFU after 24 h ([9]; after 24 h, 4 × MIC, 37 °C): completely eradicated
mode of action, bacteriostatic or bactericidal ([9]; at the concentration tested (4 × MIC)): bactericidal
concentration not toxic to HRT-18 cells [2]: 512 µg/mL
safety margin [2]: more than 400 ×MIC
growth inhibition [10]: inhibited growth
growth inhibition [11]: inhibited growth

CC(=O)NC[C@H]1CN(c2ccc(N3CCOCC3)c(F)c2)C(=O)O1 [linezolid]
MIC [12]: > 128 µg/mL

CCC[C@H](NC(=O)[C@@H]1[C@H]2CCC[C@H]2CN1C(=O)[C@@H](NC(=O)[C@@H](NC(=O)c1cnccn1)C1CCCCC1)C(C)(C)C)C(=O)C(=O)NC1CC1 [telaprevir]
oral bioavailability [13]: ≤ 3%
